# Test results as given in patent US9963482B2, “Phosphatidylinositol-3-kinase inhibitor and pharmaceutical composition” (Tohoku University, priority 2011, dated 2018).
# Like-named read-outs stand apart in the source and are kept apart here.
# How the values were obtained:
# HCT116 cells [1] = experiment: FACS cell cycle analysis in HCT116 cells; format: cell-based, human; conditions: HCT116, 24 hours; SAHA 2.5 μM, LY294002 50 μM, FK228 or FK-A5 at low concentration
# Method: The cells were collected, fixed with ethanol, stained with iodopropidium/PBS solution, and analyzed by using “Cytomics FC500 Flow Cytometry System” (trade name, manufactured by Beckman Coulter). The cell cycle fractions were calculated by using “Multicycle software” (trade name, manufactured by Phenomix Flow Systems).
# PI3K (p110α/p85α) = biological target: T1, PI3K (p110α/p85α) (Homo sapiens, UniProt P42336); experiment: In vitro PI3K inhibitory activity by mobility shift assay (Carna Biosciences); format: biochemical; conditions: for PI3K activity inhibitory rate: compound 20 μM, 50 μM ATP
# T1 construct: purchased Carna Biosciences, Inc. (Kobe); contract measurement
# T1 sequence (P42336 whole entry): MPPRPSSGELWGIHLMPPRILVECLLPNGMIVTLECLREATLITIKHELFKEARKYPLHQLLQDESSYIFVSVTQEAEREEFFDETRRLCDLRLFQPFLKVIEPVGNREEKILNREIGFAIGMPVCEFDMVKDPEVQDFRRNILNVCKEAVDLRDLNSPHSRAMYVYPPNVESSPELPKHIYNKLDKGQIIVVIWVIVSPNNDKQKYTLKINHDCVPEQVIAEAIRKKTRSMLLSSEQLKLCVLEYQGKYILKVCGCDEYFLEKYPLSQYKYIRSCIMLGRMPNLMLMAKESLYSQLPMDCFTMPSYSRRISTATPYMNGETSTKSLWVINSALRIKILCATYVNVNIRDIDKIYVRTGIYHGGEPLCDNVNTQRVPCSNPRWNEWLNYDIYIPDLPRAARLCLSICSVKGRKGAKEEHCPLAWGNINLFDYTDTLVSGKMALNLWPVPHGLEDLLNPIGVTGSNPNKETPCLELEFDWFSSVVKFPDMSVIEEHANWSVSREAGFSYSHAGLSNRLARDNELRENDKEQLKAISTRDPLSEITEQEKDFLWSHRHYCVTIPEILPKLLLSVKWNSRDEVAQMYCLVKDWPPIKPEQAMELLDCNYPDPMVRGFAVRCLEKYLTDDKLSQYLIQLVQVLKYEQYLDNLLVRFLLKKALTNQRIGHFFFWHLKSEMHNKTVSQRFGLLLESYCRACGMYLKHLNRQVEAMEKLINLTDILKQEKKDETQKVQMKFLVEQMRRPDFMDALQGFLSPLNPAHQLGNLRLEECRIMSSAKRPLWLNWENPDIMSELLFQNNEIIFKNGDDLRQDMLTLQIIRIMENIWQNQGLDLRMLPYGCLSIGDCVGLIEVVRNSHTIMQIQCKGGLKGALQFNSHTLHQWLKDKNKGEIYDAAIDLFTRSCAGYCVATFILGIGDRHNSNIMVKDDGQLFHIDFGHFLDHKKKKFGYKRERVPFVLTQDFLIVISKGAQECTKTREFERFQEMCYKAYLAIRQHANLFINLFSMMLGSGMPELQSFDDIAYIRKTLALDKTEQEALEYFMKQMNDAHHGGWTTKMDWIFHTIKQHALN
# T1 sequence (P27986 whole entry partner): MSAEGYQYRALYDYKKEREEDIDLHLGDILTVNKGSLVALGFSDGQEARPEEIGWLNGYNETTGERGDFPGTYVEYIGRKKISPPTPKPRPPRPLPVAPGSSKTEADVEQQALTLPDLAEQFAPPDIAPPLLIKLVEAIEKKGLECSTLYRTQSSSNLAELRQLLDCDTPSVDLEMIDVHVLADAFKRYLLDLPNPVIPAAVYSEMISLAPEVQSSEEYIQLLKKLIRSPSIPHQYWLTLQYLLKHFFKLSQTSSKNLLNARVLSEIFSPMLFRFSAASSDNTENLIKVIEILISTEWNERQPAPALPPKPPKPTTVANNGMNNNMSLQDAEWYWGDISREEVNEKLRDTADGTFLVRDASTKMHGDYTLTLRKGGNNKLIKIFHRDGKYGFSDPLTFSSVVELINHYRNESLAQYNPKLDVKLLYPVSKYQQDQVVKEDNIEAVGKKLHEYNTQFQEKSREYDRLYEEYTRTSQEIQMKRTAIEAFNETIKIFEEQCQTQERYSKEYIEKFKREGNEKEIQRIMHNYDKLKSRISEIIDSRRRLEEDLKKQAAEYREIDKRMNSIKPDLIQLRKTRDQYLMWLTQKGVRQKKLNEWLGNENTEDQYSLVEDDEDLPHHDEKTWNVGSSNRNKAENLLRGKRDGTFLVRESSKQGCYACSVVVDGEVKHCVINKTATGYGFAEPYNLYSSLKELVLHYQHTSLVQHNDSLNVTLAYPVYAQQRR
# Method: The PI3K (p110α/p85α) inhibitory activity was evaluated at Carna Biosciences, Inc. (Kobe) by mobility shift assay which included isolation and quantification of a substrate and the phosphorylated substrate based on the mobility in a capillary (https://www.carnabio.com/japanese/product/search.cgi?mode=profiling). […] After allowing the reaction to occur for 5 hours at room temperature, the mobility shift assay was performed. The test was performed in duplicate.
# Inhibition rate was calculated as follows.
# The value of product/substrate+product when an agent was added thereto was calculated similarly, and the inhibition rate was calculated based on a difference from the control value.
# HCT116 cells [2] = experiment: Western blotting for apoptosis, AKT and histone acetylation in HCT116 cells; format: cell-based, human; conditions: HCT116, 24 hours, 5 μM
# Method: With regard to Western blotting, HCT116 cells were treated for 24 hours with SAHA or FK-228 at predetermined concentrations, and then the expression of PARP, cleaved PARP, phosphorylated AKT (S473), AKT, acetylated histone H3, and acetylated histone H4 was analyzed.
# [3] = biological target: T2, human p110α expressed in budding yeast (Homo sapiens, UniProt P42336); experiment: Screening of PI3K inhibitor using budding yeast (recovery from cell proliferation disorder caused by p110α); format: cell-based; conditions: AD1-9 transformant expressing p110α, compound 5 μM, 24 hours, average of three tests
# T2 construct: expressed in transfected cells; host or cells: Saccharomyces cerevisiae AD1-9 (LEU2-disrupted), galactose-induced
# T2 sequence (P42336 whole entry): as the sequence (P42336 whole entry) above
# Method: AD1-9 strain can be obtained from Nader Nourizad (Stanford Genome Technology Center Stanford University, CA, USA).
# The transformed AD 1-9 strain was cultured at 30° C. in a minimal complete medium SC-U-L containing no uracil and leucine or SGal-U-L in which 2% glucose was replaced with 2% galactose.
# By using the aforementioned system, screening of the compound library, which was obtained from the Screening committee of anticancer drugs supported by grant-in-aid for scientific research on priority area “Cancer” from Ministry of Education, Culture, Sports, Science, and Technology, Japan, was performed. Each compound was added to SGal-U-L liquid medium to constitute a concentration of 0.5 μM or 5 μM and the transformant of AD 1-9 was cultured for 24 hours under shaking. Thereafter, A600 was measured. […] Three independent tests were repeatedly performed to calculate the average value of A600.
# [4] = system: AKT pathway in PC3 (prostate cancer) cells; experiment: AKT pathway inhibition by Western blotting in PC3 cells; format: cell-based, human; conditions: for expression level of phosphorylated AKT (Ser-473, Thr-308) over time: 5 to 180 minutes
# Method: PC3 cells were obtained from Cell Resource Center for Medical Research of Institute of Development, Aging, and Cancer, Tohoku University. The cells were cultured at 37° C. in the presence of 5% CO2 by using RPMI1640 medium containing inactivated fetal bovine serum at the concentration of 10%.
# Western blotting was performed as follows. Various kinds of the cells treated with each compound were collected and lysed in a lysis buffer (500 mM Tris-HCl pH 7.5, 100 mM NaCl, 2 mM EDTA, 1 mM sodium orthovanadate, 1% NP-40, and 1% protease inhibitor cocktail, manufactured by SIGMA-ALDRICH). After centrifugation, the supernatants were collected.
# The followings were used as primary antibodies.
# As a secondary antibody, “Alexa Fluor680IgG” (trade name, manufactured by Invitrogen) was used. By using “Odyssey Infrared Imaging System” (trade name, manufactured by LI-COR), expression of the protein of interest was determined.
# HDAC6 = biological target: T3, HDAC6 (Homo sapiens, UniProt Q9UBN7); conditions: Table 2; cited from earlier work
# T3 sequence (Q9UBN7 1-1215): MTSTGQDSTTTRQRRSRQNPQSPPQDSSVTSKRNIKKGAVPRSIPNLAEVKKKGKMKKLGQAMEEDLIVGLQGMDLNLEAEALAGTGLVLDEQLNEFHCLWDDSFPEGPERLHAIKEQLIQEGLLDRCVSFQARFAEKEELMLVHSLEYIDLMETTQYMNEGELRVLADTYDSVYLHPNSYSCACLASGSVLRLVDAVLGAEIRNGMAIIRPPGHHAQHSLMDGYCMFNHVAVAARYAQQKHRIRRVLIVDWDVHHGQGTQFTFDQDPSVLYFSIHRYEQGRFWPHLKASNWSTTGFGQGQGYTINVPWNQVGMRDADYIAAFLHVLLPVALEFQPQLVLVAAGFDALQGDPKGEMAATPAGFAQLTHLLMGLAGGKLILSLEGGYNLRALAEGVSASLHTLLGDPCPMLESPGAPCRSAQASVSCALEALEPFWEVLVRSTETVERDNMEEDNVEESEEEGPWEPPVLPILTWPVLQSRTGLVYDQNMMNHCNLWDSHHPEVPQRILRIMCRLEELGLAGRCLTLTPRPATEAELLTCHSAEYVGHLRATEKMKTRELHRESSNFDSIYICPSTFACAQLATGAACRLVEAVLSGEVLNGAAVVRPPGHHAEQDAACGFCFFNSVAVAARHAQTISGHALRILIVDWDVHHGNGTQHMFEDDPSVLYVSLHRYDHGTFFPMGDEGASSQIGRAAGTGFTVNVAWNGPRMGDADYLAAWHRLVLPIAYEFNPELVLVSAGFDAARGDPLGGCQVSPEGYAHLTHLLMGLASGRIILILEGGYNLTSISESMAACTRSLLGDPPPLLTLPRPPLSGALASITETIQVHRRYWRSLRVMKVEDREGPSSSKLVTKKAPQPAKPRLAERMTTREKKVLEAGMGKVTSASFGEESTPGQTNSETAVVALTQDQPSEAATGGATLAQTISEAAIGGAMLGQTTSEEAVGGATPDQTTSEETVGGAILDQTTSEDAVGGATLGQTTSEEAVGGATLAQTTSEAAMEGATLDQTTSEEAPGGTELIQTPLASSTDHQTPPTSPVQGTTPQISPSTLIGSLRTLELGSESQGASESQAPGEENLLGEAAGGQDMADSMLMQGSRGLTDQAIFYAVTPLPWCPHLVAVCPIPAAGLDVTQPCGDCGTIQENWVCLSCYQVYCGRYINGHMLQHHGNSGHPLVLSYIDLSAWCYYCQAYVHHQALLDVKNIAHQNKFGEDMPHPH
# HDAC1 = HDAC1 (Homo sapiens, UniProt Q13547); conditions: Table 2; cited from earlier work
# Chain of HDAC1 (Q13547 whole entry, species assumed): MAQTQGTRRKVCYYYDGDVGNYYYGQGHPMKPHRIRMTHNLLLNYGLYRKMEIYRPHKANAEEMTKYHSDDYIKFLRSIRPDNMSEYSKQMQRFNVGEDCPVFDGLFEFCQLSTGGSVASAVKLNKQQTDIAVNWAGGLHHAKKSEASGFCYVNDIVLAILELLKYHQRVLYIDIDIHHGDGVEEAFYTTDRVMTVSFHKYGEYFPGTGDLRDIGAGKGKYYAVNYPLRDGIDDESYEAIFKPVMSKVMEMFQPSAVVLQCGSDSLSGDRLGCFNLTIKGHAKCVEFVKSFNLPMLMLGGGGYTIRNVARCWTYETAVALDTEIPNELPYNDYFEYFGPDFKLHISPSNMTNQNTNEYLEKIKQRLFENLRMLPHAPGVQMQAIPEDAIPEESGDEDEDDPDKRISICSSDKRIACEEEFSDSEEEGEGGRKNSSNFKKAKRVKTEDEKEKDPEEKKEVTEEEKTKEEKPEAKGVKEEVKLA
# [5] = Table 3, PI3K (p110α/p85α), read-out: PI3K IC50
compound,measurement,setting,value
"C/C=C1\NC(=O)[C@H]2CSSCC/C=C/[C@H](CC(=O)N[C@H](C(C)C)C(=O)N2)OC(=O)[C@H](C(C)C)NC1=O [FK228, romidepsin]",cell cycle arrest,HCT116 cells [1],"induced cell cycle arrest, predominantly at G2/M phase"
same,IC50,"PI3K (p110α/p85α); high ATP concentration (500 μM), read-out: IC50 for PI3K",125 µM
same,inhibition at 10 µM,PI3K (p110α/p85α); read-out: inhibition rate in the PI3K inhibition curve,6.5%
same,IC50,"PI3K (p110α/p85α); standard ATP concentration (50 μM), read-out: IC50 for PI3K",57.2 µM
same,Cleaved PARP,HCT116 cells [2],increased most
same,expression of acetylated histone,HCT116 cells [2],enhanced the expression of acetylated histone
same,phosphorylated AKT,HCT116 cells [2],inhibited the phosphorylated AKT
same,A600,[3],0.385
same,"expression level of phosphorylated AKT (Ser-473, Thr-308) over time",[4]; 10 μM,"lowered the expression level of phosphorylated AKT (Ser-473, Thr-308)"
same,lowering of expression level of phosphorylated AKT (S473) compared to control,"[4]; 10 μM, 180 minutes",66%
same,lowering of expression level of phosphorylated AKT (T308) compared to control,"[4]; 10 μM, 180 minutes",86%
same,phosphorylated ERK1/2,[4]; 180 minutes,slightly inhibited
same,phosphorylated MEK1/2,[4]; 180 minutes,not inhibited
same,"expression levels of phosphorylated AKT, GSK-3β, mTOR, p70S6K and 4E-BP1","[4]; 180 minutes, varying concentration",inhibited in a concentration dependent manner
C/C=C1\NC(=O)C2CSSCC/C=C/C(CC(=O)N[C@H](C(C)C)C(=O)N2)OC(=O)CNC1=O (some centres unmarked) [FK-A1],IC50,HDAC6,3.2 µM
same,IC50,HDAC1,0.0078 µM
CC(C)C1NC(=O)CC2/C=C/CCSSCC(NC1=O)C(=O)NCC(=O)NCC(=O)O2 (centres unmarked) [FK-A2],IC50,HDAC6,4.8 µM
same,IC50,HDAC1,0.045 µM
CC(C)C1NC(=O)CC2/C=C/CCSSCC(NC1=O)C(=O)N[C@H](C)C(=O)NCC(=O)O2 (some centres unmarked) [FK-A3],IC50,HDAC6,3.2 µM
same,PI3K activity inhibitory rate,PI3K (p110α/p85α),higher inhibition rate than FK228
same,A600,[3],0.380
same,IC50,HDAC1,0.0042 µM
CC(C)[C@H]1NC(=O)CC2/C=C/CCSSCC(NC1=O)C(=O)N[C@@H](C)C(=O)NCC(=O)O2 (some centres unmarked) [FK-A4],IC50,HDAC6,2.1 µM
same,IC50,HDAC1,0.34 µM
CC(C)[C@H]1NC(=O)CC2/C=C/CCSSCC(NC1=O)C(=O)N[C@@H](Cc1ccccc1)C(=O)NCC(=O)O2 (some centres unmarked) [FK-A6],IC50,HDAC6,2.9 µM
same,PI3K activity inhibitory rate,PI3K (p110α/p85α),higher inhibition rate than FK228
same,IC50,HDAC1,0.019 µM
CC(C)C[C@H]1NC(=O)C2CSSCC/C=C/C(CC(=O)N[C@H](C(C)C)C(=O)N2)OC(=O)CNC1=O (some centres unmarked) [FK-A7],IC50,PI3K (p110α/p85α); [5],32.2 µM
CC(C)C[C@@H]1NC(=O)C2CSSCC/C=C/C(CC(=O)N[C@H](C(C)C)C(=O)N2)OC(=O)CNC1=O (some centres unmarked) [FK-A8],IC50,PI3K (p110α/p85α); [5],44.7 µM
CC(C)[C@H]1NC(=O)CC2/C=C/CCSSCC(NC1=O)C(=O)N[C@H](Cc1ccc(O)cc1)C(=O)NCC(=O)O2 (some centres unmarked) [FK-A9],IC50,PI3K (p110α/p85α); [5],14.1 µM
COc1ccc(C[C@H]2NC(=O)C3CSSCC/C=C/C(CC(=O)N[C@H](C(C)C)C(=O)N3)OC(=O)CNC2=O)cc1 (some centres unmarked) [FK-A10],IC50,PI3K (p110α/p85α); [5],26.7 µM
CC(C)[C@H]1NC(=O)CC2/C=C/CCSSCC(NC1=O)C(=O)N[C@@H](Cc1cccc3ccccc13)C(=O)NCC(=O)O2 (some centres unmarked) [FK-A12],IC50,PI3K (p110α/p85α); [5],7.2 µM
CC(C)[C@H]1NC(=O)CC2/C=C/CCSSCC(NC1=O)C(=O)N[C@H](Cc1ccc3ccccc3c1)C(=O)NCC(=O)O2 (some centres unmarked) [FK-A13],IC50,PI3K (p110α/p85α); [5],8.5 µM
CC(C)[C@H]1NC(=O)CC2/C=C/CCSSCC(NC1=O)C(=O)N[C@H](Cc1ccc(F)cc1)C(=O)NCC(=O)O2 (some centres unmarked) [FK-A17],IC50,PI3K (p110α/p85α); [5],20.2 µM
O=c1cc(N2CCOCC2)oc2c(-c3ccccc3)cccc12 [LY294002],cell cycle arrest,HCT116 cells [1],induced arrest of G0/G1 phase
same,A600,[3],0.482
same,"expression level of phosphorylated AKT (Ser-473, Thr-308) over time",[4]; 10 μM,"lowered the expression level of phosphorylated AKT (Ser-473, Thr-308)"
"O=C(CCCCCCC(=O)Nc1ccccc1)NO [SAHA, suberoyl anilide hydroxamic acid]",cell cycle arrest,HCT116 cells [1],induced arrest of G2/M phase
"CC(C)C1NC(=O)C2CSSCC/C=C/C(CC(=O)N[C@H](C)C(=O)N2)OC(=O)C[C@@H]1O (some centres unmarked) [SP-1, spiruchostatin A]",IC50,HDAC6,1.6 µM
same,A600,[3],0.412
same,IC50,HDAC1,0.0033 µM
"CC[C@H](C)C1NC(=O)C2CSSCC/C=C/C(CC(=O)N[C@H](C)C(=O)N2)OC(=O)C[C@@H]1O (some centres unmarked) [SP-2, spiruchastatin B]",IC50,HDAC6,1.4 µM
same,IC50,HDAC1,0.0022 µM
"CC[C@@H](C)C1NC(=O)C2CSSCC/C=C/C(CC(=O)N[C@H](C)C(=O)N2)OC(=O)C[C@@H]1O (stereo partly drawn) [SP-3, 5″-epi-spiruchostatin B]",IC50,HDAC6,3.9 µM
same,A600,[3],0.464
same,IC50,HDAC1,0.0024 µM
"CC(C)[C@H]1NC(=O)C2CSSCC/C=C/C(CC(=O)N[C@H](C(C)C)C(=O)N2)OC(=O)C[C@@H]1O (some centres unmarked) [SP-5, spiruchostatin D]",PI3K activity inhibitory rate,PI3K (p110α/p85α),higher inhibition rate than FK228
